Measured values published in US4276378A, “High sensitivity assays for angiotensin converting enzyme” (priority 1977, dated 1981).
Square brackets hold non-standard residues; d marks the D form. Peptide text beside a SMILES is read from it. * marks the point of attachment. pGlu = O=C1CC[C@@H](C(=O)O)N1; Boc = CC(C)(C)OC(=O)*; Bz = O=C(c1ccccc1)*; ClAc = O=C(CCl)*

Assays:
ACE [1] = biological target: T1, ACE (Oryctolagus cuniculus, UniProt P12822); settings: cited from earlier work
T1 sequence (P12822 34-1310): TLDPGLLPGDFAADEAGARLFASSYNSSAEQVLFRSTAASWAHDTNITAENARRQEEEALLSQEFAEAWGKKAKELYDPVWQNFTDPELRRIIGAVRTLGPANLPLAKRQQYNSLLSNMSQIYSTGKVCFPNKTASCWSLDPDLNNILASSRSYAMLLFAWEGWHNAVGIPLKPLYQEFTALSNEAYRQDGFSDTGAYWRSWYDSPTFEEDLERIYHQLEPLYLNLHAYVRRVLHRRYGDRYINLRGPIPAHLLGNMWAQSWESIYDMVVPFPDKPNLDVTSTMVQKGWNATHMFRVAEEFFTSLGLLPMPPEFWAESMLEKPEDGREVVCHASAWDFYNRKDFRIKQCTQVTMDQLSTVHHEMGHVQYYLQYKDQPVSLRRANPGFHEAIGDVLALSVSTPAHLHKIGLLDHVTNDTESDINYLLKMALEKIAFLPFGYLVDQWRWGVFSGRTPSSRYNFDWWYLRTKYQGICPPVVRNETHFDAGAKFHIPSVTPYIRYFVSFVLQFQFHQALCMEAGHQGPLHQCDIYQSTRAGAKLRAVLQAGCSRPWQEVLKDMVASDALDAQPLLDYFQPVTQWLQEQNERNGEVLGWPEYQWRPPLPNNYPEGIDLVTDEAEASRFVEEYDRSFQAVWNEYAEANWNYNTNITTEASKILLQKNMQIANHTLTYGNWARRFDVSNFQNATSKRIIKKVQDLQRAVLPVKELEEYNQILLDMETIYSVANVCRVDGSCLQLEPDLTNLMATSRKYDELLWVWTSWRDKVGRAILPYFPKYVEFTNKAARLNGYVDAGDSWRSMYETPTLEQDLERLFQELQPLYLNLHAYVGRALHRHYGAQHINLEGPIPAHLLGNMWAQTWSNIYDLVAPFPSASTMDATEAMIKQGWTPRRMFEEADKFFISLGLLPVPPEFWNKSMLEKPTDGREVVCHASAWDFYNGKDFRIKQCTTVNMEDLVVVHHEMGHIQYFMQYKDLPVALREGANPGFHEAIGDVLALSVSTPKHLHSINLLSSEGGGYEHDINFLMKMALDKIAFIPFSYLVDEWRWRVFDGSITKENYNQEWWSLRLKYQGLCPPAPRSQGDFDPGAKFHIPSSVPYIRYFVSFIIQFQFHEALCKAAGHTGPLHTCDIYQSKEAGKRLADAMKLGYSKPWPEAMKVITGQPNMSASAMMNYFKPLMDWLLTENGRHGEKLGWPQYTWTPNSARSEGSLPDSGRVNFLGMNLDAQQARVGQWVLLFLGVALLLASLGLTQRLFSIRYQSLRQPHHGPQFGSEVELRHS

[2] = tested on: enzyme isolated from hog lung (ACE); settings: cited from earlier work
ACE [3] = biological target: T1, ACE; settings: compared with a buffer presumably lacking chloride; cited from earlier work
[4] = Solvent extraction of substrate and remnant product from acidified reaction mixture; type: physicochemical; settings: toluene and acidified reaction mixture in approximately equal volumes at room temperature
From the text: While a variety of organic solvents may be suitable for the extraction step, it is preferred to employ toluene.

[5] = sulfate ion 0.6 M in the presence of 0.1 M chloride, pH 8

SMILES	ACE inhibition (ACE [1])	other results
C[C@H](NC(=O)[C@H](Cc1c[nH]c2ccccc12)NC(=O)[C@H](CCCCN)NC(=O)[C@@H]1CCC(=O)N1)C(=O)O [<GluLysTrpAla] ([pGlu]KWA-OH)	ACE inhibitors	
C[C@H](NC(=O)[C@H](Cc1c[nH]c2ccccc12)NC(=O)[C@@H]1CCC(=O)N1)C(=O)N1CCC[C@H]1C(=O)O [<GluTrpAlaPro] ([pGlu]WAP-OH)	ACE inhibitors	
O=C(O)CNC(=O)CNC(=O)CNC(=O)c1ccccc1 [HipGlyGly] (Bz-Gly-Gly-Gly-OH)		hydrolysis in the absence of NaCl ([2]; Na2 SO4 0.001 M to 0.6 M, no NaCl): no hydrolysis; decrease of Km by sulfate [2, 5]: about 15%; increase of Vmax by sulfate [2, 5]: about 5 fold
C[C@H](NC(=O)[C@@H](N)Cc1ccccc1)C(=O)N1CCC[C@H]1C(=O)O [PheAlaPro] (H-Phe-Ala-Pro-OH)	inhibit ACE	
C[C@H](NC(=O)[C@H](Cc1c[nH]c2ccccc12)NC(=O)[C@H](CCCCN)NC(=O)[C@@H]1CCC(=O)N1)C(=O)N1CCC[C@H]1C(=O)O [SQ20475, <GluLysTrpAlaPro] ([pGlu]KWAP-OH)		rate of cleavage in the presence of chloride (ACE [3]): more slowly
O=C(N[C@@H](Cc1ccccc1)C(=O)O)c1ccccc1 [^3 H-benzoylPhe, benzoylPhe]		fraction entering the toluene phase [4]: Approximately 88%
C[C@H](NC(=O)[C@H](Cc1ccccc1)NC(=O)CCl)C(=O)N1CCC[C@H]1C(=O)O [chloroacetylPheAlaPro] (ClAc-Phe-Ala-Pro-OH)	ACE inhibitors	
C[C@H](NC(=O)[C@H](Cc1ccccc1)NC(=O)OC(C)(C)C)C(=O)N1CCC[C@H]1C(=O)O [t-butyloxycarbonylPheAlaPro] (Boc-Phe-Ala-Pro-OH)	inhibit ACE	
